Source: the NIST ThermoML archive (doi:10.1016/j.tca.2011.08.002)

Assay: refractive index (Na D-line) (dimensionless); xn = mol fraction of the nth substance listed
Conditions: 101 kPa, Liquid, Standard Abbe refractometry

C1CCC(NC2CCCCC2)CC1 [N-cyclohexylcyclohexanamine] + CCCO
refractive index
Conditions | 288.15 K | 293.15 K | 298.15 K | 303.15 K | 308.15 K | 313.15 K | 318.15 K | 323.15 K
x2 = 0 | 1.48636 | 1.48416 | 1.48198 | 1.47978 | 1.47761 | 1.47562 | 1.47347 | 1.47134
x2 = 0.0527 | 1.48522 | 1.48299 | 1.48079 | 1.47861 | 1.47642 | 1.4743 | 1.47211 | 1.46997
x2 = 0.1009 | 1.48396 | 1.48175 | 1.47952 | 1.47729 | 1.47508 | 1.47287 | 1.47068 | 1.46853
x2 = 0.2004 | 1.48074 | 1.47851 | 1.47626 | 1.47402 | 1.47179 | 1.4695 | 1.4673 | 1.4651
x2 = 0.3002 | 1.47672 | 1.47445 | 1.47217 | 1.4699 | 1.46765 | 1.46533 | 1.46306 | 1.46087
x2 = 0.4003 | 1.47182 | 1.4695 | 1.46722 | 1.46491 | 1.46262 | 1.46024 | 1.45795 | 1.4557
x2 = 0.5005 | 1.46554 | 1.4632 | 1.46088 | 1.45856 | 1.45625 | 1.45383 | 1.45151 | 1.4492
x2 = 0.6 | 1.45743 | 1.45509 | 1.45273 | 1.4504 | 1.44805 | 1.44565 | 1.44331 | 1.44112
x2 = 0.6998 | 1.44689 | 1.44458 | 1.44226 | 1.43992 | 1.43759 | 1.43509 | 1.43279 | 1.43046
x2 = 0.8 | 1.4327 | 1.43047 | 1.4282 | 1.42592 | 1.42358 | 1.42112 | 1.41883 | 1.41649
x2 = 0.8999 | 1.41365 | 1.41145 | 1.40927 | 1.40709 | 1.40482 | 1.40242 | 1.40021 | 1.39788
x2 = 0.9491 | 1.40206 | 1.39989 | 1.3977 | 1.39547 | 1.39323 | 1.39093 | 1.38876 | 1.38638
